From US20140286945A1, “ENZYME INHIBITOR FOR CANCER TREATMENT” (The Curators of the University of Missouri, priority 2011, published 2014)

Key:
[1] = tested on: MCF-7 cells; test: MCF-7 cell proliferation (MTT); assay type: cell-based; settings: for response of MCF-7 cells to treatment: at low doses
Experimental: Refer to FIG. 11, which compares MCF-7 cell proliferation data among the treatments of BIBB515, Tamoxifen, Anastraozole, and various combinations thereof. During the experiments, the MCF-7 cells were treated with charcoal-stripped serum prior to treatment and grown with treatment repeated every 72 hrs. The cells were grown for 6 days, on day 7 the cell proliferation was determined by adding MTT and read at 570 nm according to the manufactures instructions. […] Thus, inhibiting the cholesterol pathway can inhibit the estrogen induced cell proliferation in MCF-7 cells.

[2] = tested on: Mec-2 cells; settings: 10 µM
[3] = tested on: patient CLL cells; test: Patient CLL cell viability; assay type: cell-based
Experimental: 1. Inhibition effect with BIBB515 alone and in combination with Fludarabine and Rituximab on patient cells. To assess the effect of treatment on cell viabilities, patient CLL cells were treated with BIBB515 alone and in combination with Fludarabine and Rituximab. Untreated CLL patient cell samples and samples of patients exposed to Fludarabine were used. The treatment was done 24 hrs after the cells plated in T25 flasks.

[4] = tested on: CD-20; test: Flow-cytometric analysis of CD-20 in Mec-2 cells; assay type: cell-based; settings: flow cytometry, Fludarabine 10 μM, compared to control (FIG. 2)
[5] = tested on: Mec-2 cells; test: Confocal microscopic analysis of glycosphingolipid density in Mec-2 cells; assay type: cell-based; settings: confocal microscopy, relative to control, TAK-475 at 10 μM, data not shown
Experimental: Mec-2 cells were treated with BIBB515, YM-53601, or 10 μM of TAK-475 and imaged by confocal miscrscope. […] This would explain why rituximab is of limited or no efficacy in Mec-2 and Wac-3 cells, and provides a rationale for the efficacy of combination treatment with rituximab and a cholesterol biosynthetic pathway inhibitor.

[6] = tested on: dog lymphoma cells; test: Dog lymphoma cell viability; assay type: cell-based; settings: BIBB515 10 μM
Excerpt: Spontaneously occurring lymphoma in the dog has many of the same histopathological, molecular, and clinical features as non-Hodgkin's lymphoma (NHL) in humans. Most of the lymphoma subtypes recognized in humans have histopathologically identical counterparts in the dog and recent investigations show similar molecular characteristics in the two species. Likewise, spontaneous lymphoma in the dog has a similar clinical presentation, response to chemotherapy, and clinical progression compared to NHL in human patients. […] A canine lymphoma cell line, OSW, was established from the thoracic effusion of a dog with relapsed peripheral T-cell lymphoma. […] See, e.g., U.S. Pat. No. 7,897,150 and Kisseberth, W. C., et al., “A novel canine lymphoma cell line: a translational and comparative model for lymphoma research,” Leuk Res, 2007 31(12): p. 1709-20.

[7] = tested on: Mec-2 cells; test: Membrane lipid content of Mec-2 cells by mass spectrometry; assay type: cell-based; settings: 24 hrs, 10^−5 M; for some diacyl phosphatidylcholine species: versus DMSO controls; for lysophosphatidylcholines (LPC): versus DMSO controls (FIG. 19); for levels of phosphatidylcholines (PC): versus DMSO controls (FIG. 20); for levels of glycosphingolipids/dihydroglycosphingolipids: versus DMSO controls (FIG. 21); for levels of ether-linked phosphatidylcholines: versus DMSO controls (FIG. 22)
Experimental: Lipids were extracted by the following chloroform and methanol method. To 0.8 parts cells in aqueous solution, 1 part chloroform and 2 parts methanol was added and shaken well, then another 1 part chloroform and 1 part water added and shaken. The mixture was then centrifuged at low speeds for 5-10 min. and the lower layer removed. One part chloroform was added 3 times, shaken and centrifuged to again remove the lower layer. The layers were then combined, washed with KCl and then water. The extracted lipids from Mec-2 cells were vacuum dried after 24 hrs. of treatment with BIBB(10^−5 M) and YM(10^−5 M). Controls were treated with DMSO.
Samples were analyzed by mass spectrometry by the Kansas Lipidomics Research Center (KLRC) and identified and quantified by comparison against standard molecular weights of lipids. Each sample was loaded, vaporized, and ionized by electron beam; ions electromagnetically separated according to mass-to-charge ratio (m/z) were detected, and the ion signal processed into mass spectra.
Compounds were identified based on m/z of the intact ion and the mass of one fragment formed in the mass spectrometer: typically, for polar lipids, a head group fragment; for sphingolipids, a fragment characteristic of the long-chain base or sugar(s); for neutral lipids and for specialized analyses, often an acyl fragment. Quantities were reported as normalized signal/(tissue metric nanomole/3 million cells) against internal standards added in known amounts, usually with an adjustment for variation in response with m/z. Thus, quantities reported as normalized signal/(tissue metric) for diacyl or monoacyl phospholipids can be considered to be equal to nmol/(tis sue metric).

[8] = rat, hamster, squirrel monkey and minipig models; due to inhibition of LDL production; cited from earlier work
[9] = tested on: Wac-3 cells; test: MTT assay of cell viability in Wac-3 cells; assay type: cell-based
[10] = tested on: Mec-2 cells; test: MTT assay of cell viability/proliferation in Mec-2 cells; assay type: cell-based; settings: for effect on cell proliferation, agents alone: 72 hours, BIBB515 at 10 μm (10^−5), Fludarabine 10 μM (FIG. 4)
[11] = tested on: Raji cells; test: Raji (Burkitt lymphoma) cell viability at 72 hours; assay type: cell-based
Experimental: 1. Inhibition on cell viability of Raji after treatments with BIBB515 alone and in combination with Fludarabine. Burkitt lymphoma is a highly aggressive lymphoma, and Raji cells are sensitive to Fludarabine treatment at 10 μM concentration. […] Fludarabine was used at 5 μM concentration.
2. Inhibition on cell viability of Raji after treatments with Terbinafine alone and in combination with Fludarabine. […] The preferred cholesterol concentration range may also various between different cancer types.

[12] = tested on: CD-54; test: Flow-cytometric analysis of CD-54 in Mec-2 cells; assay type: cell-based; settings: flow cytometry, Fludarabine 10 μM, compared to control (FIG. 2)
[13] = tested on: multiple myeloma cell line U226B1; test: Multiple myeloma cell line proliferation; assay type: cell-based; settings: Ro-48-8071 alone (FIG. 12)
[14] = tested on: Mec-2 cells; test: Flow cytometry of glycosphingolipids in Mec-2 cells; assay type: cell-based; settings: data not shown
[15] = 10 μM YM-53601, 10 μg/mL alemtuzumab

Molecule: CC(C)(C#N)c1cc(Cn2cncn2)cc(C(C)(C)C#N)c1 [Anastrazole]
- response of MCF-7 cells to treatment [1]: resistant

Molecule: Nc1nc(F)nc2c1ncn2[C@@H]1O[C@H](CO)[C@@H](O)[C@@H]1O [Fludarabine]
- viability [2]: 82%

Molecule: O=C(c1ccc(Cl)cc1)N1CCC(=Cc2ccc(C3=NCCO3)cc2)CC1 [BIBB515]
- effect on cell viability ([3]; BIBB515 study): reducing the cell viability moderately
- CD-20 cell surface expression [4]: increased CD-20 cell surface expression
- glycosphingolipids and thus lipid raft density [5]: increase
- cell viability ([6]; Chlorambucil 100 nM (FIG. 16)): reducing the cell viability somewhat
- cell viability ([6]; lomustine 100 nM (FIG. 15)): reducing the cell viability somewhat
- some diacyl phosphatidylcholine species [7]: reduce
- lysophosphatidylcholines (LPC) [7]: reduce
- levels of phosphatidylcholines (PC) [7]: increase
- levels of glycosphingolipids/dihydroglycosphingolipids [7]: increase
- levels of ether-linked phosphatidylcholines [7]: increase
- lipid lowering [8]: lower lipids
- sensitization of cells to Rituximab treatment ([9]; BIBB515 study (FIG. 8)): sensitizes the Wac-3 cells to Rituximab treatment
- effect on cell proliferation, agents alone [10]: able to inhibit cell proliferation
- viability [2]: 65%
- sensitization of MCF-7 cells ([1]; FIG. 11): sensitized
- proliferation of cells with estrogen ([1]; MCF-7, charcoal-stripped serum, 6 days, MTT on day 7 (FIG. 11)): blocked
- cell death in MCF-7 cells ([1]; relatively low doses of Tamoxifen or Anastrazole): induces cell death
- Raji cell proliferation ([11]; BIBB515 various concentrations, even at 10^−7, Fludarabine 5 μM (FIG. 9)): reduced
- CD-54 cell surface expression [12]: maintained at the similar level

Molecule: C=CCN(C)CCCCCCOc1ccc(C(=O)c2ccc(Br)cc2)c(F)c1 [Ro-48-8071]
- cell viability ([3]; Ro-48-8071 study, control over 80%): about 65%
- lipid lowering [8]: lower lipids
- concentration giving the highest inhibition (dose dependent sensitivity) ([10]; Ro-48-8071 alone (FIG. 6)): 30 µM
- effect on cell proliferation ([10]; Ro-48-8071 study, Fludarabine 10 μM (FIG. 6)): inhibits Mec-2 cell proliferation significantly
- cell proliferation [13]: provides reduction on cell proliferation

Molecule: F/C(COc1ccc2c(c1)[nH]c1ccccc12)=C1/CN2CCC1CC2 [YM-53601]
- glycosphingolipids / lipid raft density by flow cytometry [14]: increase was confirmed
- glycosphingolipids and thus lipid raft density [5]: increase
- some diacyl phosphatidylcholine species [7]: reduce
- lysophosphatidylcholines (LPC) [7]: reduce
- levels of phosphatidylcholines (PC) [7]: increase
- levels of glycosphingolipids/dihydroglycosphingolipids [7]: increase
- levels of ether-linked phosphatidylcholines [7]: increase
- effect on cellular proliferation [9, 15]: effective at preventing cellular proliferation
- growth of cell population ([9]; 10 μM YM-53601, 10 μg/mL alemtuzumab, control population more than tripled): did not achieve even a doubling
- effect on cell proliferation ([10]; YM-53601 100 nM (FIG. 7)): reduces Mec-2 cell proliferation moderately

Molecule: CN(C/C=C/C#CC(C)(C)C)Cc1cccc2ccccc12 [Terbinafine, terbinafine]
- cell proliferation (MTT assay) ([10]; Terbinafine 60 μM, controls 0.5 (FIG. 5)): 0.16
- Raji cell proliferation ([11]; Terbinafine study (FIG. 10)): reduced

Molecule: Rituximab: an antiCD-20 monoclonal antibody that is in use in clinics
- effect on cellular proliferation ([9]; 10 μM TAK-475, 5 μM Fludarabine, 10 μg/mL Rituximab (FIG. 14)): wholly ineffective
- effect on cell proliferation, agents alone [10]: resistant

Molecule: CC/C(=C(\c1ccccc1)c1ccc(OCCN(C)C)cc1)c1ccccc1 [Tamoxifen]
- response of MCF-7 cells to treatment [1]: resistant

Molecule: alemtuzumab: CD52-targeting monoclonal antibody
- effect on cellular proliferation [9, 15]: ineffective at the concentration tested
